Like-named read-outs stand apart in the source and are kept apart here.
Target: T1, heparinase I (heparin lyase I) of Flavobacterium heparinum, native purified (chromatofocused) enzyme, SEQ ID NO: 2 (Pedobacter heparinus, UniProt Q05819)
T1 construct: mature heparinase I from F. heparinum contains two free cysteines and not a disulfide bridge; made in house; host or cells: Flavobacterium heparinum (native enzyme purified from cell extract: hydroxyapatite, QAE-Sephadex, chromatofocusing)
Assay: Inactivation of heparinase I activity by sulfhydryl-specific reagents
Assay type: biochemical
Settings: for time to complete inactivation: PBS; for inactivation rate: 500 mM iodoacetic acid; for inactivation rate constant / inactivation time constant τ: PCMB; for inactivation time constant τ: pseudo first order fit
Description: Purification of heparinase I: Lyophilized powdered extracts of F. heparinum were prepared according to the method of Yang et al. (1985). Partially purified heparinase I was prepare by step gradient elution of powdered cell extracts from a hydroxyapatite column followed by reverse adsorption on a QAE-Sephadex column Further purification of the enzyme was accomplished with a chromatofocusing, 1 cm×18 cm column with PBE resin (Pharmacia). A 1.5-2.5 ml aliquot of protein (0.5-1.5 mg) in 0.01 M phosphate (pH 6.8) was applied to the column equilibrated with 0.025 M ethanolamine (pH 9.4 with acetic acid). Elution was carried out with 150 ml of 10% Polybuffer 96 (pH 6.0 with acetic acid). […] Fractions (1.5-2.0 ml) were collected in tubes containing 0.2 ml of 0.5 M phosphate buffer at pH 6.8. Immediately after collection, the fractions were assayed for heparinase I activity. […] The active fractions were pooled, and NaCl was added from a 2.0 M aqueous solution to give a final concentration of 0.1 M. Heparinase I was concentrated and equilibrated with a buffer consisting of 0.01 M NaH2 PO4 and 0.1 M NaCl at pH 6.8 (PBS) with Centricon P-30 microconcentrators (Amicon, Mass.).
Modification with Organomercurials: The reversible, sulfhydryl specific anion, PCMB, was utilized to determine the effects of sulfhydryl modification on heparinase I activity. […] The time course of inactivation in the presence and absence of heparin also was determined.
At =Ao exp(-t/.tau.)+A.infin.
where At is the fractional activity at time t, Ao is the initial factional activity, A.infin. is the residual activity at infinite time, and .tau. is the inactivation time constant in minutes or the reciprocal rate constant. Time constants were obtained by a nonlinear least squares fit of the data to the equation.
The effect of NEM modification on heparinase I activity was examined in an attempt to elucidate structural influences on the cysteine reactivities.
In order to ascertain whether significant levels of NEM bind heparinase I, labeling studies with [^3 H]NEM were undertaken.

T1 sequence (Q05819 22-384): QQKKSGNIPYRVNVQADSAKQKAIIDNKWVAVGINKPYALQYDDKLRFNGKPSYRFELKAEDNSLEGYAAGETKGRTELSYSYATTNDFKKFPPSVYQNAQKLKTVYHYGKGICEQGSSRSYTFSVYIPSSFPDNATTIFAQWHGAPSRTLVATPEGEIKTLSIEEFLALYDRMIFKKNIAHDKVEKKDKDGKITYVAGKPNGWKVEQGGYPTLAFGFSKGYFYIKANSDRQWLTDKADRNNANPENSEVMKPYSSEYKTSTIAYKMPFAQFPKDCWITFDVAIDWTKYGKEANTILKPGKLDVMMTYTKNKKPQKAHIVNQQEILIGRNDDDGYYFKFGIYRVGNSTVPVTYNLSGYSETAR

SMILES: O=C(O)CI [iodoacetic acid]
- time to complete inactivation (0.1 mM iodoacetic acid, 4° C.): ≤ 15 h
- time to complete inactivation (1 mM iodoacetic acid, 4° C.): ≤ 0.25 h
- inactivation rate (no heparin): 3±1×10^-3 h^-1
- inactivation rate (presence of 2 mg/ml heparin): 5±2×10^-4 h^-1
- inhibition at 2000 µM (10 min, 2 mM iodoacetic acid in PBS, 4° C., within 10 min, read-out: heparinase I inactivated): 95 ± 5%
- retention of activity relative to untreated heparinase I (iodoacetic acid treated enzyme (heparin protection experiment)): 15±5%

SMILES: O=C(O)c1cc[c]([Hg][Cl])cc1 [PCMB]
- reversible loss of enzyme activity (PCMB at 2.5-100 μM, 4° C.): 95±5%
- inactivation rate constant (0.0 mg/ml heparin): 1.2 min⁻¹
- inactivation rate constant (0.5 mg/ml heparin): 0.2 min⁻¹
- inactivation time constant τ (absence of heparin): 0.8 ± 1 min
- inactivation time constant τ (presence of 0.5 mg/ml heparin): 5 ± 1 min

SMILES: NC(=O)CI [iodoacetamide]
- inhibition at 120000 µM (120 mM iodoacetamide, 24 h incubation, PBS pH 7.0, 4° C.): 15%
- change in activity (2, 5, 10 and 120 mM iodoacetamide in PBS, pH 7.0, 4° C., up to 24 h): little change in activity

SMILES: CCN1C(=O)C=CC1=O [NEM, N-ethylmaleimide]
- inhibition at 1000 µM (1 mM NEM overnight at 4° C., read-out: activity loss): ~15%
- change in activity (1 mM NEM, pH 7.0, over an 8 h period): little change in activity
- inhibition at 1000 µM (1 mM [3H]NEM, non-denatured enzyme, 20 h, read-out: loss of activity): 15%
- inhibition at 10000 µM (0.75 h, 10 mM NEM, pH 7.0, 4° C., within 45 min, read-out: enzymatic activity lost): 15%
